Common to all, as to type: in vivo, dog
Series [1] can be described thus: Side effects of IV injection in dogs. The conditions noted are these: 2 mg/kg IV into a forepaw vein at 24-hr and 1-hr prior to LAD ligation. The method, then:
Anti-TNFα Treatment: A dosage of 2 mg/kg hTNFR:Fc (supplied as etanercept, Amgen, Inc, Thousand Oaks, Calif.) or saline were injected IV into a forepaw vein at 24-hr and again 1-hr prior to LAD ligation. […] This dosage was used after consultation with the pharmaceutical corporate pharmacology section and based on unpublished internal data that this dosage would provide maximal sequestration of tissue and circulating TNFα.

In the next series the test system is myocardial infarct. Put plainly: Model 2: 2-hr LAD occlusion/4-hr reperfusion, infarct size. As for the experimental part: Model 2: Acute changes in infarct size. Seventeen 15-22 kg male mongrel dogs were anesthetized and respired as described above. Body temperature was maintained using a temperature-controlled operative table bed and fluid replacement. Two EKG leads (L-II and V-3) and arterial pressure (left femoral) were continuously monitored during the experiment. […] After 4 hours of reperfusion, the heart was removed and rinsed with room-temperature Tyrode's solution. Cannulae were placed into the proximal aorta and into the LAD artery at the site of occlusion for perfusion with Evans blue (0.1%) and TTZ (0.1%), respectively, at equal pressure (80 mmHg). The area at risk of infarction was delineated by its red color (surviving myocardium) or a pale color (infarct) with the remaining heart stained by Evan's blue. The heart was then sliced to provide a 5 mm thick section parallel to the AV groove. After storage overnight in buffered formalin, infarcted tissue, surviving myocardium within the anatomic area at risk of infarction, and left ventricle outside the area at risk of infarction were separated using a scalpel blade. Infarct mass, area at risk of infarction, left ventricular mass, and total heart mass were determined gravimetrically. Anti-TNFα Treatment: A dosage of 2 mg/kg hTNFR:Fc (supplied as etanercept, Amgen, Inc, Thousand Oaks, Calif.) or saline were injected IV into a forepaw vein at 24-hr and again 1-hr prior to LAD ligation. […] This dosage was used after consultation with the pharmaceutical corporate pharmacology section and based on unpublished internal data that this dosage would provide maximal sequestration of tissue and circulating TNFα.

The subject of series [2] is β-adrenergic receptor kinase (βARK). Put plainly: βARK immunoblot of EBZ tissue 24 hr after LAD ligation (Model 1). To be noted: 24 hr after LAD ligation. The method, then: βARK immunoblots were used to estimate βARK expression (Yu et al., 2000).
Western Blot Analysis: Assessment of βARK content was conducted using standard SDS-PAGE and immunoblot techniques. Samples containing 100 μg of protein from myocardial extracts were electrophoresed using 10% SDS-PAGE and transferred to nitrocellulose membranes. The membrane was incubated with monoclonal anti-βARK (Upstate Biotechnology, Inc, Lake Placid, N.Y.), followed by exposure to peroxidase-linked anti-mouse IgG. Antibody binding was detected by a chemiluminescent method (ECL, Amersham Biosciences Corp, Piscataway, N.J.). Quantification of immunoreactive proteins was performed by densitometric scanning and with Image QuaNT software (Molecular Dynamics).
β-ARK, Proteasome and Ubiquitin Expression Assays: β-ARK, ubiquitinated β-ARK and proteasome in EBZ and RS tissues was determined by Western blot analysis. Samples were adjusted after protein concentration was assayed (BCA, Pierce Chemicals) to provide identical loads. 100 μg protein was combined with equal volume of SDS sample buffer, and electrophoresed on a 10% polyacrylamide gel. The blocked membranes were incubated with mouse anti β-ARK monoclonal antibody (Santa Cruz Biotechnology, Santa Cruz, Calif.) for 1-h at room temperature followed by anti-mouse IgG coupled to horseradish peroxidase and developed using an ECL western blotting kit (Amersham). The bands were scanned, stripped and reprobed with mouse anti-ubiquitin antibody (Santa Cruz Biotechnology, Santa Cruz, Calif.). The membrane was rescanned, stripped a second time and reprobed with rabbit anti-proteasome 20S C2 subunit polyclonal antibody (A.G. Scientific, Inc. CA). A separate control gel was included that was similarly treated, but reprobed with the identical Ab and band quality and density compared to the previous data obtained before stripping. Quantitation of immunoreactive bands was performed by densitometric scanning using ImageQuant software (Molecular Dynamics).
On the technique in general: A western blot detects proteins with antibodies after separation by electrophoresis.

Series [3] concerns myeloperoxidase (MPO) activity. Put plainly: Leukocyte infiltration by myeloperoxidase (MPO) activity, Model 2. To be noted: etanercept pretreated. The method, then: Calculated Oxygen Requirement and Leukocyte Infiltration: The animal's oxygen requirement was estimated by calculation of the double product (heart rate x mean arterial pressure). The myocardial activity of myeloperoxidase (MPO), an enzyme occurring virtually exclusively in neutrophils, was determined by using a modification of the method of Bradley (Mullane et al., 1985). Change in absorbance was measured spectrophotometrically in the supernatants of homogenized myocardium. One unit of MPO is defined as the quantity of enzyme hydrolyzing […] of peroxide per minute at 25° C.

The mark [4] stands for this setting: etanercept pretreated, 2-hr occlusion/4-hr reperfusion.

In the case of etanercept, the “side effects of the injection” value in series [1] is on record as “No side effects”. Besides, in the series with myocardial infarct (setting [4]), the “decrease in infarct size (% area at risk) compared to saline” value worked out at 61% and the “decrease in infarct size (% left ventricular mass) compared to saline” value turned out to be 54%. Also, the “infarct size, % left ventricular mass (LV)” value in the series on myocardial infarct (etanercept pretreated, 2-hr occlusion/4-hr reperfusion, n=8, saline 13±1) stood at 6±1 % LV. The “infarct size, % area at risk (AR)” value in the series on myocardial infarct (etanercept pretreated, 2-hr occlusion/4-hr reperfusion, n=8, saline 38±6) amounted to 15±2 % AR. Also, the “reduction of infarct size expressed as % left ventricular mass or % area at risk” value in the series with myocardial infarct (etanercept pretreatment, Model 2, approximate summary) is “approximately 50%”. In addition, the “βARK in EBZ as percentage of unoperated control tissue” value in series [2] (etanercept 2 mg/kg pretreated, immunoblot, n=5, saline 4.3%) is 33.8±7.2%. Further, the “salvage of βARK in EBZ tissue compared to saline control” value in series [2] (etanercept pretreated) is given as 8 fold. The “leukocyte infiltration, myeloperoxidase ratio of ischemic to normal tissue” value in series [3] (Model 2, n=7, saline 11±2.6) is on record as 1.8±0.2. For the same substance, in series [3] (Model 2, versus saline), the “decrease in leukocyte accumulation within ischemically injured myocardium” value was determined as 9 fold.
